Measured values published in patent publication US20180185431A1, “HOVENIAE SEMEN CUM FRUCTRUS EXTRACT COMPOSITIONS AND METHOD OF USE” (ARIBIO Co., Ltd., priority 2016, published 2018).

How the values were obtained:
[1] = test system: ARE (Nrf2), pGL4.37 transfected HepG2 cells; assay: ARE-driven luciferase reporter gene assay (Nrf2 transactivation); assay type: cell-based, human; details: SFN 30 M
Protocol: To examine the possibility that ARE activation by Nrf2 is associated with HSCF extracts-mediated cytoprotection, pGL4.37 tranfected HepG2 cells (5×10^5 cells/well) were plated in 12-well overnight, serum starved for 12 hrs, and then subsequently exposed to 30-1000 μg/ml HSCF extracts for 18 hrs. ARE-driven luciferase activity was measured in the cell treated with HSCF extracts. […] The relative ARE-luciferase activities were 1.39±0.88, 1.62±1.08, 1.91±1.22, and 3.25±0.88 in […] HSCF extracts treated cells, respectively (FIG. 3).
ARE-driven reporter gene construct, pGL4.37 [luc2P/ARE/Hygro] was obtained from promega (Madison, Wis., USA). HepG2 cells were stably transfected with pGL4.37 plasmid using Fugene HD (Promega, Madison, Wis., USA) according to manufacturer's instruction and 80 µg/mL hygromycin was added to select the resistant colonies. The resistant colonies were pooled and used for reporter gene analysis. […] Luciferase activities in cell lysates were measured by adding luciferase assay reagent (Promega, Madison, Wis., USA) using […] automatic multimode reader (Model Infinite 200 PRO; Tecan, Männedorf, Switzerland). The relative luciferase activity was calculated as the relative change to protein content determined by bicinchoninic acid (BCA) method.

HepG2 cells = assay: MTT assay, tBHP-induced cytotoxicity (cytoprotection); assay type: cell-based, human; details: SFN 30 M pretreatment, 150 M tBHP

Compound: C[S+]([O-])CCCCN=C=S (centres unmarked) [SFN, Sulforaphane]
- ARE-driven luciferase activity [1]: significantly increased luciferase activity
- protection from tBHP-mediated cell death (HepG2 cells): significantly protected from tBHP-mediated cell death
